Measured values: US5212176A, “R(+)-terazosin” (Abbott Laboratories, priority 1990, dated 1993)
Structures can show the parent of a compound that is named as a salt.

What was measured:
α1 adrenergic receptors = biological target: T1, α1 adrenergic receptors (Rattus norvegicus, UniProt P15823); experiment: α1 adrenergic receptor binding: competition with tritiated prazosin in rat liver membranes; set-up: species or system male Sprague-Dawley rats; conditions: [3H]prazosin 0.2 nM, 22° C., 50 min, mean, read-out: α1 Receptor pKI (converted)
T1 construct: cellular membranes containing α-receptors; from tissue; host or cells: liver membranes of male Sprague-Dawley rats
T1 sequence (P15823 1-515): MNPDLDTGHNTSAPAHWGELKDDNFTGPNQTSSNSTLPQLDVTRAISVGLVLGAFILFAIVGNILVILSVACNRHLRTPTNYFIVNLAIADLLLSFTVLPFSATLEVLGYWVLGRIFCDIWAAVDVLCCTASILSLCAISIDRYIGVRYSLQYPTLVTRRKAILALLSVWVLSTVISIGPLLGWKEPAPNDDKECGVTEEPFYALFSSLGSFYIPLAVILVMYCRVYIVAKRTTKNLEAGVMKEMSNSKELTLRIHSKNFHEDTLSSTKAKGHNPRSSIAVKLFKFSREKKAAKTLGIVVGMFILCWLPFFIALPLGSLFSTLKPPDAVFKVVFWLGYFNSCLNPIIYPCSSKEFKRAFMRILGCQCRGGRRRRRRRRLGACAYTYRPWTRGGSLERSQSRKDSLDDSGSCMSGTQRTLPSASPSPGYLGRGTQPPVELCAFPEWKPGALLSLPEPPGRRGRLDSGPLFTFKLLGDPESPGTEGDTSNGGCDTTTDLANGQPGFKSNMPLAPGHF
Description: (§1) The technique is well known and described in the literature. The pKI, or negative logarithm of the binding equilibrium constant, is determined from the experimental data for each receptor and the degree of selectivity of the compound in question for α1 over α2 receptors can be measured by the antilogarithm of the differences between the pKI values for the two receptors.
(§2) α-Adrenergic binding data were obtained for the two enantiomers of terazosin and the racemic compound. Tissue from the liver and cerebral cortex of male Sprague-Dawley rats was homogenized in ice-cold assay buffer (Tris-HCl, 50 mM, pH 7.0 and 22° C.). After centrifugation at 48,000 g for ten minutes the resulting pellets, containing cellular membranes containing α-receptors, were resuspended in 20 volumes of assay buffer and recentrifuged for ten minutes at 48,000 g. Liver membranes were diluted 200-fold and cerebral cortex tissues 50-fold with assay buffer.
(§3) Binding to α1 adrenergic receptors was characterized with liver membranes in competition studies using tritiated prazosin (82 Ci/mmol, DuPont NEN; 0.2 nM) and six concentrations of each test compound at half-log incremental concentrations. Binding to α2 adrenergic receptors was characterized in cerebral cortex tissue using tritiated rauwolscine (82.2 Ci/mMol, DuPont NEN; 0.5 nM) and six concentrations of competing test compound. Equilibrium binding was characterized after a 50 minute incubation period at 22° C.
(§4) where [L] is the concentration of radioligand and KD is the equilibrium dissociation constant of the radioligand for the receptor.

α2 adrenergic receptors = experiment: α2 adrenergic receptor binding: competition with tritiated rauwolscine in rat cerebral cortex tissue; set-up: species or system male Sprague-Dawley rats; conditions: [3H]rauwolscine 0.5 nM, 22° C., 50 min, mean
Description: as §1, §2, §3, §4

[1] = acute toxicity, intravenous administration in adult male mice; type: in vivo; conditions: mouse, in vivo, adult male mice
Description: (§5) The acute toxicities of the two enantiomeric forms of terazosin and the racemic compound were tested in adult male mice by intravenous administration, and the data appear in Table 2.

[2] = tested on: spontaneously hypertensive rat; experiment: antihypertensive effects in the spontaneously hypertensive rat model (blood pressure and heart rate); type: in vivo; conditions: oral, 0.1 to 10.0 mg/kg; 1, 5, 8, and 24 hours
Description: The antihypertensive effects of R(+)-, S(-)-, and racemic terazosin were tested in several well-controlled experiments in the spontaneously hypertensive rat model. All three materials were dissolved in vehicle (0.2% methylcellulose) and administered orally at doses ranging from 0.1 to 10.0 mg/kg of body weight. As a control, the vehicle was administered orally. The compounds were administered in a volume of 2.0 ml/kg. All doses of the compound and vehicle were tested simultaneously in groups of eight to sixteen rats, randomly grouped.
The arterial and systolic blood pressure and heart rate were measured thirty minutes prior to and at intervals of 1, 5, 8, and 24 hours following administration of the test compounds. […] While not holding to one theory to the exclusion of others, it is believed that the tachycardia associated with administration of the S(-)-enantiomer is due to the greater affinity of the S(-)-enantiomer for binding at the α2 adrenergic receptor and the lack of tachycardia associated with administration of the R(+)-enantiomer with its low affinity for the α2 receptors.

adult male mice = experiment: acute toxicity, intravenous administration in adult male mice; type: in vivo; conditions: mice, R(+) vs S(-)
Description: as §5

α2 adrenoceptor = biological target: T2, α2 adrenoceptor (Rattus norvegicus, UniProt P22909); experiment: α2-mediated norepinephrine release / clonidine antagonism in the stimulated rat vas deferens model; set-up: species or system male Wistar rats
T2 construct: Vas deferens tissue from male Wistar rats; from tissue; host or cells: isolated vas deferens of male Wistar rats
T2 sequence (P22909 1-465): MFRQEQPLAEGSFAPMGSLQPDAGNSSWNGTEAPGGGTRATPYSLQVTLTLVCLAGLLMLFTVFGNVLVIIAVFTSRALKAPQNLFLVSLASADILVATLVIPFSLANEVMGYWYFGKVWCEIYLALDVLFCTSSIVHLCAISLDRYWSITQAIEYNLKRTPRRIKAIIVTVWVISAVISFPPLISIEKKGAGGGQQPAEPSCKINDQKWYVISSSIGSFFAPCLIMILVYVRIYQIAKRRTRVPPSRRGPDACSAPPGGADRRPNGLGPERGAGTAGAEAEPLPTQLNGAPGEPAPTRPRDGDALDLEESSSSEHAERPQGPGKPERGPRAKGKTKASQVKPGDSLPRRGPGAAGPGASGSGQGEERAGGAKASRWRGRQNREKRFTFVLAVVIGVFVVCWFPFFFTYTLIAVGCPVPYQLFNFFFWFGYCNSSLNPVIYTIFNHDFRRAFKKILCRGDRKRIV
Description: The effect upon α2 -stimulated norepinephrine release of R(+)-terazosin and the S(-)-enantiomer and racemic compound were evaluated in the stimulated rat vas deferens model. Vas deferens tissue from male Wistar rats was cleaned of extraneous tissue and mounted between platinum stimulating electrodes and suspended in a tissue bath. The tissues were stimulated transmurally until the preparation stabilized, generally after about 60-80 minutes. After the twitch response became constant, a stimulus was applied at a frequency of 0.1 Hz for the duration of the dose-responsestudy.
Clonidine was used as a control for inhibiting the twitch response, with 10 minute contact times at increasing doses until the stimulated response was attenuated to zero. The stimulus was then reduced to once every five minutes and the tissue washed until the twitch response was restored. After this, the 0.1 Hz signal was again applied and clonidine was administered together with test compound. All responses were calculated as percent reduction in the twitch response.
(The pA2 values is the negative logarithm of the equilibrium dissociation constant for the antagonist-receptor complex, calculated from pharmacological functional data, and is a measure of the affinity of the antagonist at the particular receptor.)

SMILES | Ki (α1 adrenergic receptors) | α2 Receptor pKI (α2 adrenergic receptors) | LD50 [1] | increase in heart rate (tachycardia) [2] | LD50 increase over the corresponding S(-)-enantiomer (adult male mice) | pA2 (measurability) (α2 adrenoceptor; rat vas deferens) | α2-adrenoreceptor affinity and effect on α2-adrenoreceptor mediated norepinephrine release (α2 adrenoceptor; tested up to 3.0 μmolar) | effect on norepinephrine release and contractile (twitch) response (α2 adrenoceptor; rat vas deferens, 0.1 Hz stimulation, agonist control)
COc1cc2nc(N3CCN(C(=O)C4CCCO4)CC3)nc(N)c2cc1OC (racemic) [Racemic, 2-[4-[(tetrahydro-2-furanyl)carbonyl]-1-piperazinyl]-6,7-dimethoxy-4-quinazolinamine, reference compound] | 0.643 nM | 6.569 ± 0.129 - log M | 248 mg/kg | tachycardia was consistently observed | – | – | – | –
COc1cc2nc(N3CCN(C(=O)[C@H]4CCCO4)CC3)nc(N)c2cc1OC [R(+), R(+)-2-[4-[(tetrahydro-2-furanyl)carbonyl]-1-piperazinyl]-6,7-dimethoxy-4-quinazolinamine hydrochloride] | 0.964 nM | 5.938 ± 0.178 - log M | 307 mg/kg | consistently did not produce an increase in heart rate (tachycardia) | 50% | No pA2 values could be measured | devoid of α2 -adrenoreceptor affinity and thus failed to affect α2 -adrenoreceptor mediated norepinephrine release | –
COc1cc2nc(N3CCN(C(=O)[C@@H]4CCCO4)CC3)nc(N)c2cc1OC [S(-), S(-)-2-[4-[(tetrahydro-2-furanyl)carbonyl]-1-piperazinyl]-6,7-dimethoxy-4-quinazolinamine] | 0.643 nM | 7.036 ± 0.199 - log M | 205 mg/kg | tachycardia was consistently observed | – | – | – | –
Clc1cccc(Cl)c1N=C1NCCN1 [clonidine, reference compound] | – | – | – | – | – | – | – | inhibits norepinephrine release from the adrenergic nerve endings and thus inhibits the contractile response of tissue
